Experiment: xn = mol fraction of the nth substance listed
Conditions: 101 kPa

CC(=O)NCC(=O)O + O
viscosity [mPa·s]
Conditions	305.15 K	310.15 K	315.15 K
x1 = 3.6e-05	0.7912	0.7079	0.6523
x1 = 7.24e-05	0.7987	0.7201	0.6594
x1 = 0.000108	0.8032	0.7298	0.6613
x1 = 0.000144	0.8098	0.7307	0.6623
x1 = 0.0001823	0.8102	0.7321	0.6627
x1 = 0.000344	0.8162	0.7345	0.6658
x1 = 0.0007167	0.8254	0.7372	0.6685
x1 = 0.001025	0.8325	0.7401	0.6724
x1 = 0.001416	0.8398	0.7443	0.6751
x1 = 0.001792	0.8466	0.7473	0.6785
x1 = 0.002155	0.8523	0.7499	0.6822
x1 = 0.002607	0.8583	0.7554	0.6887
x1 = 0.003011	0.8641	0.7603	0.6933
x1 = 0.003546	0.8721	0.7654	0.6996

CCCCCCn1cc[n+](C)c1.F[P-](F)(F)(F)(F)F + CCCCCCn1cc[n+](C)c1.[Cl-]
viscosity [mPa·s]
Conditions	303.15 K	308.15 K	313.15 K	318.15 K	323.15 K
x2 = 0.2	962.7	679	486.2	357.7	–
x2 = 0.4	–	–	854.7	598.9	433.5
x2 = 0.6	–	–	–	–	705.5

[Br-].[Br-].[Br-].[Sb+3] + Nc1ccccc1
323.15 K
Conditions	viscosity [mPa·s]
x1 = 0.1	6.997
x1 = 0.25	182.4
x1 = 0.333	2175
x1 = 0.4	7012
x1 = 0.45	20680
x1 = 0.47	23030
x1 = 0.49	24420
x1 = 0.5	24690
x1 = 0.51	20780
x1 = 0.53	16040
x1 = 0.55	7888
x1 = 0.6	3022
x1 = 0.75	272.9
